Reference: patent US20080108511A1, “GENES AND GENE PRODUCTS […] EXPRESSED DURING HEART FAILURE” (priority 2006, published 2008)
Marks after values point to notes of the source that are not given here.

System: turkey poults
Conditions: in vivo
Excerpt: The values shown in Table 4 are the average values±the standard error. The values in parentheses indicate the number of hearts. CK is creatine kinase, LDH is lactate dehydrogenase, and AST is aspartate transaminase. Ca^2+-ATPase activity was normalized per gram of protein. * represents p<0.05.

## O=C1OCCN1/N=C/c1ccc([N+](=O)[O-])o1 [Fz, furazolidone]
  ATP synthase: 87 ± 4* (4) IU/g
  LDH: 219 ± 12* (9) IU/g
  Myoglobin: 27.2 ± 3.1* (5) μg/g
  SR Ca2+ cycling: Ca2+-ATPase: 3.4 ± 0.6* (4) IU/g
  SR Ca2+ cycling: Ca2+-ATPase pump: 24.4 ± 6.3* (9) nM/s
  Total ATPase: 16.8 ± 0.9* (4) IU/g
  Total protein: 111 ± 3.0* (8) mg/g
  myofibrillar protein content: 34.6 ± 2.5 mg/g
